Source: patent publication US20110082130A1 (LIGAND PHARMACEUTICALS, INC., priority 2006, published 2011)

Biological target: T1, chimeric human H3 receptor (Homo sapiens, UniProt Q9Y5N1)
T1 construct: made in house; host or cells: Sf9 insect cells (baculovirus); P2 membrane preparation
Assay: Chimeric human H3 receptor screening GTP binding assay (inhibition of histamine-stimulated GTP-gamma35S binding, Example 8)
Assay type: biochemical
Conditions: Table II "Ki", symbol †, 4 μM of the compound, 1 μM histamine, read-out: percent inhibition of the signal obtained with 1 μM histamine
Method in brief: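 Sf9 membranes co-expressing chimeric human H3 receptor and heterotrimeric G-protein, 35 μg per reaction, incubated 60 min at room temperature with 4 μM compound, 1 μM histamine, 10 μM GDP and […] GTP-gamma35S at pH 7.4. Filter-bound radioactivity counted. Result expressed as percent inhibition of the histamine signal after subtracting non-specific binding (10 μM GTP-gammaS).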

T1 sequence (Q9Y5N1 with tags, fused parts or gaps): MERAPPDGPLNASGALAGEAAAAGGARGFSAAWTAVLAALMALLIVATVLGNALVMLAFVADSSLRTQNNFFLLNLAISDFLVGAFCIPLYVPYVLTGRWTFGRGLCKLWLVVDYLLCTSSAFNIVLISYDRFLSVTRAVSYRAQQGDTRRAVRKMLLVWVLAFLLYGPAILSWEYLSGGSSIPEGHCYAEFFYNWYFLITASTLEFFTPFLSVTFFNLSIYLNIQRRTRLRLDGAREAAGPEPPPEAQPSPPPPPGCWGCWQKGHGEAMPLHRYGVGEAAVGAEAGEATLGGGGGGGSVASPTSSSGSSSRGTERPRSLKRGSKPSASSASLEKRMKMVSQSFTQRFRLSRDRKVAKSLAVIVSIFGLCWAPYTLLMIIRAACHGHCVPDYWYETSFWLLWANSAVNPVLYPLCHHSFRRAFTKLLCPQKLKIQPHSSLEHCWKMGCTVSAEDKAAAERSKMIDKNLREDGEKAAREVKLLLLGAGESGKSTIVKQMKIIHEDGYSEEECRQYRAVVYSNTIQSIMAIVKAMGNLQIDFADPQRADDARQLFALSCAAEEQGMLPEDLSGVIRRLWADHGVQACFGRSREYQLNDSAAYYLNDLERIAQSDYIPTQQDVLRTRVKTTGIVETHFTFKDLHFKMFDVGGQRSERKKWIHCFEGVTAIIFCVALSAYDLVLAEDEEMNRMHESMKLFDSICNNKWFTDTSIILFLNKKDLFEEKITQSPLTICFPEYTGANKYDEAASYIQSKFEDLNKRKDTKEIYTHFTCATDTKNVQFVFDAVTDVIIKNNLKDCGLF

Structure (SMILES) | inhibition at 4 µM
COc1ccc(C)cc1-c1ccc2c(c1)CCN(CC(=O)N1CCN(C3CCC3)CC1)C2 [Compound 572, 2-[2-(4-cyclobutylpiperazin-1-yl)-2-oxoethyl]-6-(2-methoxy-5-methylphenyl)-1,2,3,4-tetrahydroisoquinoline] | ≥ 90%
CC(C)N1CCN(C(=O)CN2CCc3cc(-c4ccccc4Oc4ccccc4)ccc3C2)CC1 [Compound 578, 2-[2-(4-isopropylpiperazin-1-yl)-2-oxoethyl]-6-(2-phenoxyphenyl)-1,2,3,4-tetrahydroisoquinoline] | ≥ 90%
O=C(CN1CCc2cc(-c3ccc(F)c(Cl)c3)ccc2C1)N1CCN(C2CCC2)CC1 [Compound 579, 6-(3-chloro-4-fluorophenyl)-2-[2-(4-cyclobutylpiperazin-1-yl)-2-oxoethyl]-1,2,3,4-tetrahydroisoquinoline] | ≥ 90%
O=C(CN1CCc2cc(-c3ccc(F)c(Cl)c3)ccc2C1)N1CCN(C2CCCC2)CC1 [Compound 580, 6-(3-chloro-4-fluorophenyl)-2-[2-(4-cyclopentylpiperazin-1-yl)-2-oxoethyl]-1,2,3,4-tetrahydroisoquinoline] | ≥ 90%
O=C(CN1CCc2cc(-c3ccc(F)c(Cl)c3)ccc2C1)N1CCN(C2CCCCC2)CC1 [Compound 581, 6-(3-chloro-4-fluorophenyl)-2-[2-(4-cyclohexylpiperazin-1-yl)-2-oxoethyl]-1,2,3,4-tetrahydroisoquinoline] | ≥ 90%
O=C(CN1CCc2cc(-c3cc(F)ccc3F)ccc2C1)N1CCN(C2CCC2)CC1 [Compound 582, 2-[2-(4-cyclobutylpiperazin-1-yl)-2-oxoethyl]-6-(2,5-difluorophenyl)-1,2,3,4-tetrahydroisoquinoline] | ≥ 90%
CC(C)N1CCN(C(=O)CN2CCc3cc(-c4cc(F)ccc4F)ccc3C2)CC1 [Compound 585, 6-(2,5-difluorophenyl)-2-[2-(4-isopropylpiperazin-1-yl)-2-oxoethyl]-1,2,3,4-tetrahydroisoquinoline] | ≥ 90%
O=C(CN1CCc2cc(-c3ccc(F)cc3F)ccc2C1)N1CCN(C2CCC2)CC1 [Compound 586, 2-[2-(4-cyclobutylpiperazin-1-yl)-2-oxoethyl]-6-(2,4-difluorophenyl)-1,2,3,4-tetrahydroisoquinoline] | ≥ 90%
O=C(CN1CCc2cc(-c3ccc(F)c(F)c3)ccc2C1)N1CCN(C2CCC2)CC1 [Compound 589, 2-[2-(4-cyclobutylpiperazin-1-yl)-2-oxoethyl]-6-(3,4-difluorophenyl)-1,2,3,4-tetrahydroisoquinoline] | ≥ 90%
O=C(CN1CCc2cc(-c3ccc(F)c(F)c3)ccc2C1)N1CCN(C2CCCC2)CC1 [Compound 590, 2-[2-(4-cyclopentylpiperazin-1-yl)-2-oxoethyl]-6-(3,4-difluorophenyl)-1,2,3,4-tetrahydroisoquinoline] | ≥ 90%
O=C(CN1CCc2cc(-c3ccc(F)c(F)c3)ccc2C1)N1CCN(C2CCCCC2)CC1 [Compound 591, 2-[2-(4-cyclohexylpiperazin-1-yl)-2-oxoethyl]-6-(3,4-difluorophenyl)-1,2,3,4-tetrahydroisoquinoline] | ≥ 90%
O=C(CN1CCc2cc(-c3cc(Cl)cc(Cl)c3)ccc2C1)N1CCN(C2CCC2)CC1 [Compound 592, 2-[2-(4-cyclobutylpiperazin-1-yl)-2-oxoethyl]-6-(3,5-dichlorophenyl)-1,2,3,4-tetrahydroisoquinoline] | ≥ 90%
O=C(CN1CCc2cc(-c3ccc(Cl)c(F)c3)ccc2C1)N1CCN(C2CCCCC2)CC1 [Compound 593, 6-(4-chloro-3-fluorophenyl)-2-[2-(4-cyclohexylpiperazin-1-yl)-2-oxoethyl]-1,2,3,4-tetrahydroisoquinoline] | ≥ 90%
O=C(CN1CCc2cc(-c3ccc(Cl)c(Cl)c3)ccc2C1)N1CCN(C2CCC2)CC1 [Compound 594, 2-[2-(4-cyclobutylpiperazin-1-yl)-2-oxoethyl]-6-(3,4-dichlorophenyl)-1,2,3,4-tetrahydroisoquinoline] | ≥ 90%
O=C(CN1CCc2cc(-c3ccc(Cl)c(Cl)c3)ccc2C1)N1CCN(C2CCCC2)CC1 [Compound 595, 2-[2-(4-cyclopentylpiperazin-1-yl)-2-oxoethyl]-6-(3,4-dichlorophenyl)-1,2,3,4-tetrahydroisoquinoline] | ≥ 90%
O=C(CN1CCc2cc(-c3cc(F)cc(F)c3)ccc2C1)N1CCN(C2CCC2)CC1 [Compound 596, 2-[2-(4-cyclobutylpiperazin-1-yl)-2-oxoethyl]-6-(3,5-difluorophenyl)-1,2,3,4-tetrahydroisoquinoline] | ≥ 90%
O=C(CN1CCc2cc(-c3cc(F)cc(F)c3)ccc2C1)N1CCN(C2CCCC2)CC1 [Compound 597, 2-[2-(4-cyclopentylpiperazin-1-yl)-2-oxoethyl]-6-(3,5-difluorophenyl)-1,2,3,4-tetrahydroisoquinoline] | ≥ 90%

Now from value to compound:

inhibition at 4 µM | Structure (SMILES)
≥ 90% | COc1ccc(-c2ccc3c(c2)CCN(CC(=O)N2CCN(C4CCCC4)CC2)C3)c(OC)c1 [Compound 564, 2-[2-(4-cyclopentylpiperazin-1-yl)-2-oxoethyl]-6-(2,4-dimethoxyphenyl)-1,2,3,4-tetrahydroisoquinoline]
≥ 90% | COc1ccc(-c2ccc3c(c2)CCN(CC(=O)N2CCN(C4CCCCC4)CC2)C3)c(OC)c1 [Compound 565, 2-[2-(4-cyclohexylpiperazin-1-yl)-2-oxoethyl]-6-(2,4-dimethoxyphenyl)-1,2,3,4-tetrahydroisoquinoline]
≥ 90% | CCOc1ccccc1-c1ccc2c(c1)CCN(CC(=O)N1CCN(C3CCC3)CC1)C2 [Compound 566, 2-[2-(4-cyclobutylpiperazin-1-yl)-2-oxoethyl]-6-(2-ethoxyphenyl)-1,2,3,4-tetrahydroisoquinoline]
≥ 90% | CCOc1ccccc1-c1ccc2c(c1)CCN(CC(=O)N1CCN(C3CCCC3)CC1)C2 [Compound 567, 2-[2-(4-cyclopentylpiperazin-1-yl)-2-oxoethyl]-6-(2-ethoxyphenyl)-1,2,3,4-tetrahydroisoquinoline]
≥ 90% | CCOc1ccccc1-c1ccc2c(c1)CCN(CC(=O)N1CCN(C3CCCCC3)CC1)C2 [Compound 568, 2-[2-(4-cyclohexylpiperazin-1-yl)-2-oxoethyl]-6-(2-ethoxyphenyl)-1,2,3,4-tetrahydroisoquinoline]
≥ 90% | CCOc1ccccc1-c1ccc2c(c1)CCN(CC(=O)N1CCN(C(C)C)CC1)C2 [Compound 569, 6-(2-ethoxyphenyl)-2-[2-(4-isopropylpiperazin-1-yl)-2-oxoethyl]-1,2,3,4-tetrahydroisoquinoline]
≥ 90% | COc1ccc(F)cc1-c1ccc2c(c1)CCN(CC(=O)N1CCN(C3CCC3)CC1)C2 [Compound 570, 2-[2-(4-cyclobutylpiperazin-1-yl)-2-oxoethyl]-6-(5-fluoro-2-methoxyphenyl)-1,2,3,4-tetrahydroisoquinoline]
≥ 90% | COc1ccc(F)cc1-c1ccc2c(c1)CCN(CC(=O)N1CCN(C3CCCC3)CC1)C2 [Compound 571, 2-[2-(4-cyclopentylpiperazin-1-yl)-2-oxoethyl]-6-(5-fluoro-2-methoxyphenyl)-1,2,3,4-tetrahydroisoquinoline]
≥ 90% | COc1ccc(C)cc1-c1ccc2c(c1)CCN(CC(=O)N1CCN(C3CCCC3)CC1)C2 [Compound 573, 2-[2-(4-cyclopentylpiperazin-1-yl)-2-oxoethyl]-6-(2-methoxy-5-methylphenyl)-1,2,3,4-tetrahydroisoquinoline]
≥ 90% | COc1ccc(C)cc1-c1ccc2c(c1)CCN(CC(=O)N1CCN(C3CCCCC3)CC1)C2 [Compound 574, 2-[2-(4-cyclohexylpiperazin-1-yl)-2-oxoethyl]-6-(2-methoxy-5-methylphenyl)-1,2,3,4-tetrahydroisoquinoline]
≥ 90% | O=C(CN1CCc2cc(-c3ccccc3Oc3ccccc3)ccc2C1)N1CCN(C2CCC2)CC1 [Compound 575, 2-[2-(4-cyclobutylpiperazin-1-yl)-2-oxoethyl]-6-(2-phenoxyphenyl)-1,2,3,4-tetrahydroisoquinoline]
≥ 90% | O=C(CN1CCc2cc(-c3ccccc3Oc3ccccc3)ccc2C1)N1CCN(C2CCCC2)CC1 [Compound 576, 2-[2-(4-cyclopentylpiperazin-1-yl)-2-oxoethyl]-6-(2-phenoxyphenyl)-1,2,3,4-tetrahydroisoquinoline]
≥ 90% | O=C(CN1CCc2cc(-c3ccccc3Oc3ccccc3)ccc2C1)N1CCN(C2CCCCC2)CC1 [Compound 577, 2-[2-(4-cyclohexylpiperazin-1-yl)-2-oxoethyl]-6-(2-phenoxyphenyl)-1,2,3,4-tetrahydroisoquinoline]
≥ 90% | O=C(CN1CCc2cc(-c3cc(F)ccc3F)ccc2C1)N1CCN(C2CCCC2)CC1 [Compound 583, 2-[2-(4-cyclopentylpiperazin-1-yl)-2-oxoethyl]-6-(2,5-difluorophenyl)-1,2,3,4-tetrahydroisoquinoline]
≥ 90% | O=C(CN1CCc2cc(-c3cc(F)ccc3F)ccc2C1)N1CCN(C2CCCCC2)CC1 [Compound 584, 2-[2-(4-cyclohexylpiperazin-1-yl)-2-oxoethyl]-6-(2,5-difluorophenyl)-1,2,3,4-tetrahydroisoquinoline]
≥ 90% | O=C(CN1CCc2cc(-c3ccc(F)cc3F)ccc2C1)N1CCN(C2CCCC2)CC1 [Compound 587, 2-[2-(4-cyclopentylpiperazin-1-yl)-2-oxoethyl]-6-(2,4-difluorophenyl)-1,2,3,4-tetrahydroisoquinoline]
≥ 90% | O=C(CN1CCc2cc(-c3ccc(F)cc3F)ccc2C1)N1CCN(C2CCCCC2)CC1 [Compound 588, 2-[2-(4-cyclohexylpiperazin-1-yl)-2-oxoethyl]-6-(2,4-difluorophenyl)-1,2,3,4-tetrahydroisoquinoline]
